According to patent US9951038B2, “Quinazolin-4(3H)-one-type piperidine compounds and uses thereof” (Purdue Pharma L.P., priority 2012, dated 2018):

Tests used:
Nociceptin receptor = Nociceptin receptor (Homo sapiens, UniProt P41146); assay: biochemical
CYP1A2 = target: T1, CYP1A2 (Homo sapiens, UniProt P05177); assay: Cytochrome P450 inhibition, pooled human hepatic microsome, CYP1A2; format: in vitro ADME
T1 sequence (P05177 1-516): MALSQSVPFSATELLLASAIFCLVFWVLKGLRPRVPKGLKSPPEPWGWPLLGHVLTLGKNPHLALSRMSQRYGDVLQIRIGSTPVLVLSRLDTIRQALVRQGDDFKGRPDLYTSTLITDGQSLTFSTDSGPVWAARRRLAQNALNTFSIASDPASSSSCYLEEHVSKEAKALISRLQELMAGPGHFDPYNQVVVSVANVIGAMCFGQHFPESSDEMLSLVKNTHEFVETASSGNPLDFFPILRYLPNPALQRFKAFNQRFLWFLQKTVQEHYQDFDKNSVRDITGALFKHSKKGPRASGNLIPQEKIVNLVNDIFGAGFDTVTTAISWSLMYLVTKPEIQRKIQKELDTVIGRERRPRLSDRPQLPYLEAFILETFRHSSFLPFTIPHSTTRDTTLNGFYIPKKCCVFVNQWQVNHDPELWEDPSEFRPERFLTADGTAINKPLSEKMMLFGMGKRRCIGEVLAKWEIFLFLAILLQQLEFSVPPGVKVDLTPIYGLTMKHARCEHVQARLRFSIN

CYP3A4 = target: T2, CYP3A4 (Homo sapiens, UniProt P08684); assay: Cytochrome P450 inhibition, pooled human hepatic microsome, CYP3A4; format: in vitro ADME
T2 construct: using commercially available pooled human hepatic microsome; from tissue; host or cells: pooled human hepatic microsomes

CYP2D6 = target: T3, CYP2D6 (Homo sapiens, UniProt P10635); assay: Cytochrome P450 inhibition, pooled human hepatic microsome, CYP2D6 (dextromethorphan O-demethylation); format: in vitro ADME; details: 5 μmol/L dextromethorphan, 15 min, 37° C.
T3 construct: using commercially available pooled human hepatic microsome; from tissue; host or cells: pooled human hepatic microsomes

CYP2C9 = target: T4, CYP2C9 (Homo sapiens, UniProt P11712); assay: Cytochrome P450 inhibition, pooled human hepatic microsome, CYP2C9; format: in vitro ADME
T4 construct: using commercially available pooled human hepatic microsome; from tissue; host or cells: pooled human hepatic microsomes

[1] = target: human opioid receptor-like (ORL-1) (Homo sapiens, UniProt P41146); assay: In vitro ORL-1 receptor [35S]GTPγS functional assay; format: biochemical; details: for Emax: read-out: ORL-1 GTPγS Emax
human opioid receptor-like (ORL-1), sequence (P41146 whole entry): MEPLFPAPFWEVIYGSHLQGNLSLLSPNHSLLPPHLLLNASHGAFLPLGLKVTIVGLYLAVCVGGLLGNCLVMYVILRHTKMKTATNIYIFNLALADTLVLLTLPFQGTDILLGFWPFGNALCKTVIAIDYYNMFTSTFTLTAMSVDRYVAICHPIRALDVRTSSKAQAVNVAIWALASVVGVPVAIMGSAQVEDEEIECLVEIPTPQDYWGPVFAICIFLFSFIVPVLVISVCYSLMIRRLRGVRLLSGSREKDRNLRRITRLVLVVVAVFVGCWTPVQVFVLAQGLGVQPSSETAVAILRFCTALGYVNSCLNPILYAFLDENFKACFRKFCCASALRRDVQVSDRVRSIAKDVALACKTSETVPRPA

T2 sequence (P08684 whole entry): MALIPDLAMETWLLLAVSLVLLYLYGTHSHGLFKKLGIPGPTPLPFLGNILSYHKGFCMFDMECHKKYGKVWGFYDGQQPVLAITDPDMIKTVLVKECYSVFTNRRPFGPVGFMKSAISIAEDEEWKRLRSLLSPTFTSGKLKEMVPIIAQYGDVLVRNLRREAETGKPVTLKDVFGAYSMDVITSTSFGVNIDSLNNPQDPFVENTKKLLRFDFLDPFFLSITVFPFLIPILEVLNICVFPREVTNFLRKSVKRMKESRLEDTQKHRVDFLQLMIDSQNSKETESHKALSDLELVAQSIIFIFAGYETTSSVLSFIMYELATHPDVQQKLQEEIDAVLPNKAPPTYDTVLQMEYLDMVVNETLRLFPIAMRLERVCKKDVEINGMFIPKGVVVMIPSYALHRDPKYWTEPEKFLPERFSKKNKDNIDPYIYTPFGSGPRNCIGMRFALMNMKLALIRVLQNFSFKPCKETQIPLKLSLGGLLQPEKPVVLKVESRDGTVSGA
T4 sequence (P11712 whole entry): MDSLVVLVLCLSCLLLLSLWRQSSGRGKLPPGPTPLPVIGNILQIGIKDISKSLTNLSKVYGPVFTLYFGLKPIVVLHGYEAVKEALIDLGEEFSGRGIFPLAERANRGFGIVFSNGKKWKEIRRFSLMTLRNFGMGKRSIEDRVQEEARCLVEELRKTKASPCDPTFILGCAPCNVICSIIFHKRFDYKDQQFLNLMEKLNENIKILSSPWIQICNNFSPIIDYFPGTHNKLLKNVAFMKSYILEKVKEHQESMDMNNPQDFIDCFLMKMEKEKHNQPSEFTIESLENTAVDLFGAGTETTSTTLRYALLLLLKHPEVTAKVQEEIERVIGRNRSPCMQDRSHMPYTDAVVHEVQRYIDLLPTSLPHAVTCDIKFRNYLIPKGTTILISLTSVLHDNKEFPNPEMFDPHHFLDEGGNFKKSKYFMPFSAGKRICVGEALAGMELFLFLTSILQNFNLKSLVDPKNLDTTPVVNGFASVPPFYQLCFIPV
T3 sequence (P10635 whole entry): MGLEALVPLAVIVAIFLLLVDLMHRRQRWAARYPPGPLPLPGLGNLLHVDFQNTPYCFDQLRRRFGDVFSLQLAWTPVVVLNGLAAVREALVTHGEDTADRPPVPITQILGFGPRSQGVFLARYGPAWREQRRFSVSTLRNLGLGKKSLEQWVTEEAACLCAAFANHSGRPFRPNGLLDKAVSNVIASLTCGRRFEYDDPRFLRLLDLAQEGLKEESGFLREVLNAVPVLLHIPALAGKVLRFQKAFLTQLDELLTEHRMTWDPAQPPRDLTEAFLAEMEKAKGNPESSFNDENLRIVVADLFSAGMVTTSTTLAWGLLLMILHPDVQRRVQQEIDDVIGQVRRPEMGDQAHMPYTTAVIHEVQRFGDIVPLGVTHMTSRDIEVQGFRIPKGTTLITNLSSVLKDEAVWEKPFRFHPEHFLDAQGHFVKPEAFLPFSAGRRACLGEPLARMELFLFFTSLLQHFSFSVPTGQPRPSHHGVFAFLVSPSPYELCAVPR
Nociceptin receptor, sequence (P41146 whole entry, looked up): as the sequence (P41146 whole entry) above

CCOC(=O)c1nc2ccccc2c(=O)n1C1C[C@H]2CCC[C@@H](C1)N2C1C[C@H]2CCC[C@@H](C1)C2 (stereo partly drawn) [8 (D12b), ethyl 3-((1R,1′R,3R,3′R,5S,5′S)-9′-aza[3,9′-bi(bicyclo[3.3.1]nonan)]-3′-yl)-4-oxo-3,4-dihydroquinazoline-2-carboxylate]
Ki (Nociceptin receptor): 0.252 µM
IC50 (CYP1A2): > 20 µM
IC50 (CYP3A4): 6.5 µM
IC50 (CYP2D6): 9.7 µM
IC50 (CYP2C9): > 20 µM

O=C(O)c1nc2ccccc2c(=O)n1C1C[C@H]2CCC[C@@H](C1)N2C1C[C@H]2CCC[C@@H](C1)C2 (stereo partly drawn) [9 (D2b), 3-((1R,1′R,3R,3′R,5S,5′S)-[3,9′-bi(9′-azabicyclo[3.3.1]nonan)]-3′-yl)-4-oxo-3,4-dihydroquinazoline-2-carboxylic acid]
EC50 [1]: > 20 µM
Emax [1]: 1%
IC50 (CYP1A2): > 20 µM
IC50 (CYP3A4): > 20 µM
IC50 (CYP2D6): 2.6 µM
IC50 (CYP2C9): > 20 µM

O=c1[nH]c2ccccc2c(=O)n1C1C[C@H]2CCC[C@@H](C1)N2C1C[C@H]2CCC[C@@H](C1)C2 (stereo partly drawn) [12 (D1a)]
EC50 [1]: > 20 µM
Emax [1]: 1.33 ± 0.33%
IC50 (CYP1A2): > 20 µM
IC50 (CYP3A4): > 20 µM
IC50 (CYP2D6): 8.9 µM
IC50 (CYP2C9): > 20 µM

O=C(O)Cn1c(=O)n(C2C[C@H]3CCC[C@@H](C2)N3C2C[C@H]3CCC[C@@H](C2)C3)c(=O)c2ccccc21 (stereo partly drawn) [15 (D3a), 2-(3-((1R,1′R,3r,3′R,5S,5′S)-[3,9′-bi(9′-azabicyclo[3.3.1]nonan)]-3′-yl)-2,4-dioxo-3,4-dihydroquinazolin-1(2H)-yl)acetic acid]
EC50 [1]: > 20 µM
IC50 (CYP1A2): > 20 µM
IC50 (CYP3A4): > 20 µM
IC50 (CYP2D6): > 20 µM
IC50 (CYP2C9): > 20 µM

O=C(O)CNC(=O)Cn1c(=O)n(C2C[C@H]3CCC[C@@H](C2)N3C2C[C@H]3CCC[C@@H](C2)C3)c(=O)c2ccccc21 (stereo partly drawn) [18 (D28a), 2-(2-(3-((1R,1′R,3r,3′R,5S,5′S)-[3,9′-bi(9′-azabicyclo[3.3.1]nonan)]-3′-yl)-2,4-dioxo-3,4-dihydroquinazolin-1(2H)-yl)acetamido)acetic acid]
EC50 [1]: > 20 µM
Emax [1]: 1%
IC50 (CYP1A2): > 20 µM
IC50 (CYP3A4): > 20 µM
IC50 (CYP2D6): 1.6 µM
IC50 (CYP2C9): > 20 µM

O=C(O)Cn1c(=O)n(C2C[C@H]3CCC[C@@H](C2)N3C2C[C@H]3CCCC[C@@H](C2)C3)c(=O)c2ccccc21 (stereo partly drawn) [21 (J3a), 2-(3-((1R,3R,5S)-9-((1R,6S,8r)-bicyclo[4.3.1]decan-8-yl)-9-azabicyclo[3.3.1]nonan-3-yl)-2,4-dioxo-3,4-dihydroquinazolin-1(2H)-yl)acetic acid]
EC50 [1]: > 20 µM
IC50 (CYP1A2): 5.5 µM
IC50 (CYP3A4): 2.3 µM
IC50 (CYP2D6): > 20 µM
IC50 (CYP2C9): > 20 µM

CCC1C[C@@H]2CC(N3[C@@H]4CCC[C@H]3CC(n3c(=O)c5ccccc5n(CC(=O)O)c3=O)C4)C[C@H](C1)C2 (stereo partly drawn) [24 (D459a), 2-(3-((1R,1′R,3r,3′R,5S,5′S)-7-ethyl-[3,9′-bi(9′-azabicyclo[3.3.1]nonan)]-3′-yl)-2,4-dioxo-3,4-dihydroquinazolin-1(2H)-yl)acetic acid]
Ki (Nociceptin receptor): 0.229 µM
EC50 [1]: > 20 µM
IC50 (CYP1A2): > 20 µM
IC50 (CYP3A4): 5.8 µM
IC50 (CYP2D6): 18.7 µM
IC50 (CYP2C9): > 20 µM
